Laboratory results: BigSolDB 2.1

O=P(Oc1ccccc1)(Oc1ccccc1)N1CCN(P(=O)(Oc2ccccc2)Oc2ccccc2)CC1
solubility (mole fraction)
Conditions | in THF | in acetone | in benzene | in chloroform | in dichloromethane | in ethanol | in ethyl acetate | in methanol | in toluene
288.15 K | – | – | – | – | 0.00585 | – | – | – | –
293.15 K | 0.00109 | 0.000424 | 0.00268 | 0.0132 | 0.00725 | 0.000495 | 0.000826 | 3.28e-05 | 0.000506
298.15 K | 0.00143 | 0.000489 | 0.00319 | 0.0146 | 0.00878 | 0.000613 | 0.00103 | 5.77e-05 | 0.000616
303.15 K | 0.00183 | 0.000559 | 0.00385 | 0.0162 | 0.0106 | 0.000746 | 0.00122 | 9.84e-05 | 0.000782
308.15 K | 0.00236 | 0.000631 | 0.00458 | 0.0183 | 0.013 | 0.000946 | 0.00158 | 0.000156 | 0.000986
313.15 K | 0.00301 | 0.000717 | 0.00549 | 0.0202 | – | 0.00113 | 0.00194 | 0.000251 | 0.00124
318.15 K | 0.00375 | 0.000795 | 0.00632 | 0.0223 | – | 0.00134 | 0.00242 | 0.000415 | 0.00148
323.15 K | 0.00493 | 0.000901 | 0.00724 | 0.0245 | – | 0.00158 | 0.00301 | 0.000656 | 0.00178
328.15 K | 0.00605 | – | 0.00834 | – | – | 0.00186 | 0.0036 | – | 0.00213
333.15 K | 0.00766 | – | 0.00972 | – | – | 0.00221 | 0.00437 | – | 0.00251
338.15 K | – | – | 0.0112 | – | – | 0.00269 | 0.00521 | – | 0.00313
343.15 K | – | – | 0.0129 | – | – | 0.0032 | 0.00614 | – | 0.00371
